Results on 21 molecules are retold here after article PMC11478287, “Design and Synthesis of Pyridyl and 2-Hydroxyphenyl Chalcones with Antitubercular Activity” (Molecules, 2024).

Data set [1] concerns Mycobacterium tuberculosis H37Rv. Description: microbe, parasite or virus in culture. Type of data set: cell-based. The following applies: for IC90: read-out: Anti-tubercular activity M. tuberculosis (H37Rv) IC90; for IC50: SD in brackets, read-out: Anti-tubercular activity M. tuberculosis (H37Rv) IC50 (SD).
The nature of data set [2]: HepG2 cytotoxicity screening (CellTiter-Glo). Format: cell-based. To be noted: human, HepG2 cells; 50% decrease in viable cells after 72 h. How it is done:
(§1) The cytotoxicity of compounds towards eukaryotic cells was determined using human liver cells (HepG2), non-tumorigenic human mammary epithelial cells (MCF-10A), and breast cancer cells (MDA-MB-468).
HepG2 cells were incubated with compounds for 72 h in medium containing either glucose or galactose, and cell viability was measured. The IC50 was determined as the concentration of compound causing a 50% decrease in viable cells after 72 h. Compounds were prepared as 10-point three-fold serial dilutions in DMSO. The highest concentration of compound tested was 100 µM where compounds were soluble in DMSO at 10 mM. […] HepG2 cells were cultured in complete DMEM (recipe: DMEM medium, 1X penicillin-streptomycin solution, 2 mM Corning Glutogro supplement, 1 mM sodium pyruvate, 10% v/v Fetal Bovine Serum), inoculated into 384-well assay plates and incubated for 24 h at 37 °C, 5% CO2. Compounds were added and cells were cultured for a further 72 h. The final DMSO concentration was 1%. Cell viability was determined using the CellTiter-Glo® Luminescent Cell Viability Assay (Promega, Madison, WI, USA) and measuring relative luminescent units (RLU). The dose-response curve was fitted using the Levenberg–Marquardt algorithm. The IC50 was defined as the compound concentration that produced a 50% decrease in viable cells. Each run included staurosporine as a control.

Data set [3] is described as follows: MCF-10A MTT cytotoxicity screening. Format: cell-based. To be noted: human, MCF-10A normal breast (mammary epithelial) cells, quadruplicate, read-out: Cytotoxicity MCF10A normal breast cells IC50. How it is done: as §1
(§2) Cells were purchased from the American Type Culture Collection (Manassas, VA, USA). MDA-468 cells were grown in RPMI-1640 medium with 10% (v/v) heat-inactivated foetal calf serum and L-glutamine (2 mM) without phenol red. MCF-10A cells were grown in Dulbecco’s modified Eagle’s medium/ Ham’s F-12 medium (1:1) with 5% (v/v) heat-inactivated foetal calf serum, epidermal growth factor (20 ng/mL), insulin (10 µg/mL), and hydrocortisone (500 ng/mL). Cells were maintained at 37 °C, 5% CO2 / 95% air with 100% humidity and passaged every 2–3 days using trypsin EDTA solution (0.25% w/v). Adhered cells at sub confluence were harvested for experimental use. The medium was aspirated and discarded, and trypsin-EDTA solution (1% w/v, 1 mL) was added to the cells. After 30 s this was aspirated and immediately replaced by a further 1 mL of trypsin-EDTA solution. The cells were incubated at 37 °C for approximately 5 min or until the cells were visibly non-adherent. The resultant cell suspension was placed in a 25 mL sterile universal container with 10 mL of fresh medium followed by centrifugation (3 min, 3000 rpm, and 4 °C). Old medium was aspirated and replaced with 10 mL of fresh medium. To determine the density of cells in suspension, an aliquot (100 µL) was added to a trypan-blue solution (0.4% w/v, 100 µL), and the number of viable cells were determined using a Neubauer haemocytometer. The cell suspension was diluted with relevant medium to give a cell count of 2 × 10^3 cells per mL. Aliquots (100 µL) were dispensed into sterile 96-well microtitre flat-bottomed plates. For the MDA-468 and MCF-10A cell lines the plates were incubated at 37 °C, 5% CO2/95% air with 100% humidity for 24 h prior to the addition of test compounds. Test compounds were added within 30 min into the wells from a 100 mM stock solution in DMSO and serially diluted to give final concentrations of […], 0.01, 0.003, 0.001, and 0.0003 µM. […] The cells were allowed to grow for 96 h at 5%, CO2, 37 °C to give 80–90% confluence in the control wells, after which 50 µL of MTT (3-[4,5 dimethylthiazol-2-yl]-2,5-diphenyl tetrazolium bromide, 2 mg mL^−1) in sterile phosphate buffer was added to each well and the plates were further incubated for 2 h. All medium was aspirated, and the formazan precipitate generated by viable cells was solubilised by 150 µL of DMSO. All the plates were vortexed, and the absorbance at 540 nm was determined using a Molecular Devices SpectraMax M5 plate reader. Results were expressed as a percentage of the control value versus the negative logarithm of the molar drug concentration range using Graph Pad Prism. Relative toxicities of each compound within each cell line were expressed as 50% of growth inhibition (IC50). All determinations were carried out in quadruplicate.

Data set [4] is described as follows: MDA-468 MTT cytotoxicity screening. Format: cell-based. To be noted: human, MDA-MB-468 (MDA468) breast cancer cells, quadruplicate. How it is done: as §1, §2
The subject of data set [5] is MDA468 breast cancer cells. More on the design: method as in PMID 29332599. The following applies: previously reported value ref 12; read-out: Cytotoxicity MDA468 breast cancer cells IC50; cited from earlier work.
Setting [6] is: Mycobacterium tuberculosis, H37RV, 120 h, 5-day incubation, […].

Each structure is given as a SMILES string. Entries after “also recorded” stand apart in the source; their conditions may differ. Read-outs that look alike come from different tables or passages of the source.

Consider `O=C(/C=C/c1cccnc1)c1ccc(Cl)cc1` [Compound 15, (E)-1-(4-chlorophenyl)-3-(pyridin-3-yl)prop-2-en-1-one], for which, in data set [1] (setting [6]), the IC90 came out at 77 µM and the IC50 was 24 µM. In data set [2], the IC50 at 72 h was found to be 11 µM.

As to `Oc1ccccc1C1=NNC(c2cn(-c3ccccc3)nc2-c2ccccc2)C1` (stereo not drawn) [Compound 29, 2-(1′,3′-diphenyl-3,4-dihydro-1′H,2H-[3,4′-bipyrazol]-5-yl)phenol], the “Fold more active than parent compound 27 (IC50 H37Rv)” value in data set [1] (29 versus 27) worked out at 10 fold. Moreover, in data set [1] (setting [6]), the IC90 was > 25 µM and the IC50 turned out to be 11 µM. In data set [2], this molecule had an IC50 at 72 h of 46.5 µM.

As for `O=C(/C=C/c1ccc(Cl)cc1)c1ccccc1O` [Compound 23, (E)-3-(4-chlorophenyl)-1-(2-hydroxyphenyl)prop-2-en-1-one], the IC90 in data set [1] (5-day incubation, […]) is > 100 µM; in data set [1] (setting [6]) it was 97 to 100 µM. For the same molecule, the midpoint of inhibition in data set [2], the IC50 at 72 h, lay at 25 µM.

For `COc1ccc(/C=C\c2cc(OC)c(OC)c(OC)c2)cc1O` [Combretastatin A-4, reference compound], the IC50 at 96 h was determined as 0.0016 µM in data set [3] and 0.003 µM in data set [4].

`O=C(/C=C/c1cccnc1)c1ccc(O)cc1` [Compound 17]: the “Anti-tubercular activity (in words)” value in data set [1] (M. tuberculosis H37Rv) is recorded as “abolished”. Besides, in data set [1] (setting [6]), the IC90 is > 100 µM and the IC50 was > 100 µM. In addition, the IC50 at 72 h in data set [2] is > 100 µM. Moreover, the IC50 at 96 h in data set [3] was > 100 µM. The molecule further registered an IC50 at 96 h in data set [4] of 30 µM.

On to `COc1cccc(C(=O)/C=C/c2ccc(Br)cc2)c1` [Compound 25, (E)-3-(4-bromophenyl)-1-(3-methoxyphenyl)prop-2-en-1-one], for which, in data set [1] (setting [6]), the IC90 worked out at 28 µM and the IC50 stood at 22 µM. In data set [2], this molecule displayed an IC50 at 72 h of 14 µM.

Turning to `O=C(/C=C/c1cccnc1)c1c2ccccc2cc2ccccc12` [Compound 19], in data set [1] (setting [6]), the IC90 amounted to 48 µM and the IC50 is 10 µM. For the same molecule, half-maximal inhibition in data set [2] (IC50 at 72 h) was put at 2.7 µM. Moreover, in data set [3], the IC50 at 96 h worked out at 4.4 µM. The same molecule yielded an IC50 at 96 h in data set [4] of 0.3 µM.

For `Oc1ccccc1C1=NNC(c2ccc(Cl)cc2)C1` (stereo not drawn) [Compound 30, 2-(5-(4-chlorophenyl)-4,5-dihydro-1H-pyrazol-3-yl)phenol], the IC50 in data set [1] (setting [6]) was 23 µM. The molecule also came in with an IC50 at 72 h in data set [2] of 19.5 µM.

`O=C(/C=C/c1cccnc1)c1ccc(Cl)c(Cl)c1` [Compound 14, (E)-1-(3,4-dichlorophenyl)-3-(pyridin-3-yl)prop-2-en-1-one]: in data set [1] (setting [6]), the IC90 was determined as 28 µM and the IC50 amounted to 12 µM. The same molecule showed an IC50 at 72 h in data set [2] of 2.5 µM.

Regarding `O=C(/C=C/c1cccnc1)c1ccc2ccc3cccc4ccc1c2c34` [Compound 20, (E)-1-(pyren-1-yl)-3-(pyridin-3-yl)prop-2-en-1-one], the IC90 in data set [1] (setting [6]) stood at 22 µM. For the same molecule, the IC50 in data set [1] (setting [6]) turned out to be 8.8 µM. This molecule showed a half-maximal inhibitory concentration (IC50) at 72 h in data set [2] of 1.8 µM. The IC50 at 96 h came to 2 µM in data set [3] and 4 µM in data set [4].

With `O=C(/C=C/c1cccc(Br)c1)c1cccnc1` [Compound 28, (E)-3-(3-bromophenyl)-1-(pyridin-3-yl)prop-2-en-1-one], in data set [1] (setting [6]), the IC90 worked out at 65 µM. Also, the IC50 at 96 h in data set [3] was found to be 5.2 µM; in data set [4], 0.7 µM.

Consider `COc1cc(C(=O)/C=C/c2ccc3c(c2)OCO3)cc(OC)c1OC` [Compound 2], for which, in data set [1], the “Anti-tubercular activity (in words)” value was “did not exhibit anti-tubercular activity; also recorded: no antitubercular activity”. In addition, in data set [1] (Mycobacterium tuberculosis, H37RV, 120 h), the IC90 is > 100 µM. Also, in data set [3], the IC50 at 96 h came to 2.3 µM. Further, the IC50 in data set [5] was 0.006 µM.

For the molecule `Oc1ccccc1C1=NNC(c2ccc(Br)cc2)C1` (stereo not drawn) [Compound 31, 2-(5-(4-bromophenyl)-4,5-dihydro-1H-pyrazol-3-yl)phenol], in data set [1] (setting [6]), the IC90 was determined as 34 µM and the IC50 turned out to be 23 µM. In data set [2], the IC50 at 72 h came to 24.5 µM.

Regarding `COc1cccc(C(=O)/C=C/c2ccc(Cl)cc2)c1` [Compound 26, (E)-3-(4-chlorophenyl)-1-(3-methoxyphenyl)prop-2-en-1-one], the IC90 in data set [1] (5-day incubation, […]) came out at 28 µM. Further, in data set [1] (setting [6]), the IC90 was ≥ 28 µM and the IC50 was determined as 20 µM. In addition, 13 µM corresponded to half-maximal inhibition in data set [2] (IC50 at 72 h).

As for `COc1ccccc1C(=O)/C=C/c1ccc(Br)cc1` [Compound 22], in data set [1] (setting [6]), the IC90 was found to be 59 µM and the IC50 was 44.5 µM. The IC50 at 72 h in data set [2] was 13 µM.

In the case of `O=C(/C=C/c1cn(-c2ccccc2)nc1-c1ccccc1)c1ccccc1O` [Compound 27, (E)-3-(1,3-diphenyl-1H-pyrazol-4-yl)-1-(2-hydroxyphenyl)prop-2-en-1-one], the IC90 in data set [1] (5-day incubation, […]) is > 100 µM. In data set [1] (setting [6]), the IC90 is 97 to 100 µM and the IC50 is > 100 µM. Half-maximal inhibition in data set [2] (IC50 at 72 h) required 74 µM.

`COc1cc(C(=O)/C=C/c2cccnc2)cc(OC)c1OC` [Compound 16, (E)-3-(pyridin-3-yl)-1-(3,4,5-trimethoxyphenyl)prop-2-en-1-one]: the IC90 in data set [1] (setting [6]) worked out at 59 µM. Further, the IC50 in data set [1] (setting [6]) stood at 19 µM. Further, in data set [2], inhibition was half-maximal at 2 µM (IC50 at 72 h). The IC50 at 96 h in data set [3] was determined as 1.5 µM; in data set [4], 0.7 µM.

As to `CO[C@H]1/C=C/O[C@@]2(C)Oc3c(C)c(O)c4c(O)c(c(/C=N/N5CCN(C)CC5)c(O)c4c3C2=O)NC(=O)/C(C)=C\C=C\[C@H](C)[C@H](O)[C@@H](C)[C@@H](O)[C@@H](C)[C@H](OC(C)=O)[C@@H]1C` [Rifampicin, reference compound], in data set [1] (setting [6]), the IC90 stood at 0.0087 µM and the IC50 was 0.0044 µM.

Take `O=C(/C=C/c1cccnc1)c1ccc(-c2ccccc2)cc1` [Compound 21, (E)-1-([1,1′-biphenyl]-4-yl)-3-(pyridin-3-yl)prop-2-en-1-one]: in data set [1] (setting [6]), the IC90 was 8.9 µM and the IC50 amounted to 3.9 µM. In data set [2], it took 4.5 µM to reach half-maximal inhibition (IC50 at 72 h). Moreover, the IC50 at 96 h in data set [3] came out at 7 µM. The molecule also yielded an IC50 at 96 h in data set [4] of 3.5 µM.

On to `O=C(/C=C/c1cccnc1)c1ccccc1O` [Compound 18, (E)-1-(2-hydroxyphenyl)-3-(pyridin-3-yl)prop-2-en-1-one], for which the “Anti-tubercular activity (in words)” value in data set [1] (M. tuberculosis H37Rv) is listed as “abolished”. In data set [1] (setting [6]), the IC90 was > 100 µM and the IC50 was > 100 µM. Also, the IC50 at 72 h in data set [2] came to 22 µM. Also, in data set [3], the IC50 at 96 h came out at 16 µM. This molecule returned an IC50 at 96 h in data set [4] of 8 µM.

Take `O=C(/C=C/c1ccc(Br)cc1)c1ccccc1O` [Compound 24, (E)-3-(4-bromophenyl)-1-(2-hydroxyphenyl)prop-2-en-1-one]: in data set [1] (setting [6]), the concentration for an effect of 90% (IC90) turned out to be 97 µM and the IC50 is > 100 µM. In addition, inhibition in data set [2] was half-maximal at 14 µM (IC50 at 72 h).
